{"source": "patent US20090208597A1", "about": "“HEAT PROCESSED VEGETABILIC FIBER PREPARATION AND ITS USE AS INHIBITOR OF THE EFFECTS OF CARCINOGENIC SUBSTANCES IN HUMANS OR ANIMALS” (ESSENTYS AB, priority 2006, published 2009)", "key": {"BALB mice": {"tested_on": "BALB mice", "test": "Potato fiber supplemented diet in acryl amide exposed mice, histomorphology of intestine and liver (Example 1)", "format": "in vivo", "settings": "acryl amide added to the drinking water; 90 days", "method": "The main aim of these studies was to see if a potato fiber supplemented diet had any effect on acryl amide induced cancer development in mice.\nSeventy five 9-weeks old male and seventy five 7 to 9 weeks old female BALB mice (Laboratory), weighing about 20 g, were used. Mice were housed ten per box of the same sex. Solid food and water were allowed in sufficient quantities. The animals were kept in an animal house where the humidity and temperature were controlled and where a 12 h light period was kept. The experiment has been reviewed and approved by Lund University ethic committee, application M140-03.\n2/ Labodiet MLF 2% and potato fiber preparation (Povex®). The receipt of this food/feed is based on the control food/feed. The food/feed was enriched with 2% of Povex®.\n3/ Labodiet MLF 2% heated potato fiber preparation (Povex®). […]\nIt was found suitable to use the commercial (Sigma-Aldrich, St Louis, Mo.) acryl amide for electrophoresis in the form of powder (minimum 99%). […] Before the beginning of the experiment, the water consumption during 24 h of 5 groups of mice was measured. […] This consumption was used to calculate the concentration of the two doses of acryl amide: The high dose was calculated from 2 mg/day/kg b.w. and the low dose from 0.1 mg/day/kg b.w. […] The volume left in the bottle was measured and listed in a table in order to follow the consumption of acryl amide through the water. […]"}, "[1]": {"tested_on": "small intestine of male BALB mice", "test": "Povex in food of mice treated with acrylamide, histomorphometry of small intestine (Example 4)", "format": "in vivo", "method": "The aim of this study was to investigate if regular and heat Povex can protect small intestine against acrylamide toxic influence. The point was to establish what histological changes can acrylamide cause to small intestine tissue and if Povex can reverse or decrease these possible changes.\nThree months experiment was performed on males BALB mince. Two doses of acrylamide (2 mg/day/kg b.w., and 0.1 mg/day/kg b.w.) in drinking water and two types of Povex heated (Treated) and normal (Untreated) added to food were provided for animals.\nHistology and histomorphometry of small intestine was performed. The examined parameters were: fractal dimension of small intestine, mitosis inside crypts and apoptosis count per mm^2 of tissue.\nSeventy-five 9-weeks old male and seventy-five 7 to 9 weeks old female BALB mice (Laboratory), weighing about 20 g, were used in whole experiment. Mice were housed ten per box of the same sex. This part of experiment and analysis obtained from is made on twenty eight male BALB mice.\nThree types of formulated mixtures were manufactured: • Labodiet MLF control. The receipt of this food is based on the energy needs according to the Polish norm for feeding domestic animals. • Labodiet MLF 2% n Povex. The receipt of this food is based one the control one. The food was enriched with 2% of Povex. • Labodiet MLF 2% praz Povex. The receipt of this food is based one the control one. The food was enriched with 2% of heated Povex till 160° C.\nBefore the beginning of the experiment, we measured water consumption in 24 hours of 5 groups of mice. The average of daily-consumption was 10 mL/day/kg b.w. This consumption was used to calculate the concentration of the two doses of acrylamide: The high dose was calculated from 2 mg/day/kg b.w. and the low dose from 0.1 mg/day/kg b.w. The first dilution of acrylamide in tap water was made directly with the powder and 3 L of both concentrations were prepared. […] The volume left in the bottle was measured and put in a table to follow the consumption of acrylamide through the water. […]"}}}
{"smiles": "C=CC(N)=O", "note": "[Acryl amide, acryl amide]", "values": [{"measurement": "histomorphological parameters of the intestine and liver", "setting": "BALB mice", "result": "affected a majority of the measured histomorphological parameters"}, {"measurement": "number of mitosis inside small intestine crypt", "setting": "[1]; small and large dose of AA with standard food vs control group", "result": "significant decrease"}, {"measurement": "number of apoptosis/mm^2 in small intestine tissue", "setting": "[1]; standard food + large or low dose of AA", "result": "elevated number of apoptotic cells"}, {"measurement": "fractal dimension of small intestine mucosa", "setting": "[1]; standard food and low dose of AA (0.1 mg) vs control group", "result": "difference between control group and animals getting standard food and low dose of AA"}]}
